Data from patent US9550763B2, “Heterocyclic ring and carbocyclic derivative” (Shionogi & Co., Ltd., priority 2012, dated 2017).

Target: human P2X3 receptor (Homo sapiens (Human), UniProt P56373)
Experiment: Evaluation of human P2X3 receptor inhibitory activity (Test Example 1-1, FDSS 3000, 96-well, 50 nM ATP)
Type: cell-based
Conditions: human P2X3 receptor in C6BU-1 cells; Test Example 1-1 (compounds I-001 to I-300)
Procedure: Stably expressing cell line (C6BU-1 cell transfected with human P2X3 receptor gene (GenBank accession number Y07683) was used. The cells were seeded in a 96-well microtiter plate at a concentration of 8000 cells/well and cultured in the medium (7.0% fetal bovine serum, 7.0% horse serum, 1% antibiotic and antifungal in DMEM) for one day at 37° C. under 5% carbon dioxide atmosphere. The medium was replaced with 4 μM Fluo-3-AM solution (20 mM HEPES, 137 mM NaCl, 5.27 mM KCl, 0.9 mM MgCl2, 1.26 mM CaCl2, 5.6 mM D-glucose, 2.5 mM probenecid, 1% BSA, and 0.08% Pluronic F-127, pH 7.5) and incubated at 37° C. under 5% dioxide carbon atmosphere for one hour. The plate was washed with washing buffer (20 mM HEPES, 137 mM NaCl, 5.27 mM KCl, 0.9 mM MgCl2, 1.26 mM CaCl2, 5.6 mM D-glucose, 2.5 mM probenecid, pH7.5), and each well was added with 40 μL of this buffer. The plate was placed in High-Throughput Screening System. FDSS 3000 (Hamamatsu Photonics K.K.). Measurement of fluorescence intensity by FDSS 3000 was started, and 40 μL of DMSO solutions containing different concentrations of the test compound as prepared by dilution with dilution buffer (20 mM HEPES, 137 mM NaCl, 5.27 mM KCl, 0.9 mM MgCl2, 1.26 mM CaCl2, 5.68 mM D-glucose, 2.5 mM probenecid, 0.1% Pluronic F-127, pH7.5) were dispensed to each well through the built-in automatic dispenser. Five minutes after, 50 nM ATP solution (50 μL) prepared by dilution with the dilution buffer was dispensed through the built-in automatic dispenser, and the measurement of fluorescence intensity was continued for 4 min. For each well, the specific maximum fluorescence intensity was calculated as the ratio of the maximum fluorescence intensity after addition of the ATP solution to the fluorescence intensity at the starting of the measurement. The 50% inhibitory concentration (IC50) was calculated under the assumption that the specific maximum fluorescence intensity without test compound is 0% inhibition and that the specific maximum fluorescence intensity when the dilution buffer was added in place of ATP solution is 100% inhibition, to evaluate the inhibitory activity of the test compound. FDSS software (Hamamatsu Photonics K.K.) was used for calculation of the specific maximum fluorescence intensity. IC50 was calculated using Microsoft Excel (Microsoft Corporation) and XLfit (idbs Ltd.)
The data of the compounds I-001 to I-300 are the results by the method mentioned in Test Example 1-1, and the data of the compounds I-301 to I-483 are the results by the method mentioned in Test Example 1-2.

human P2X3 receptor, sequence (P56373 whole entry): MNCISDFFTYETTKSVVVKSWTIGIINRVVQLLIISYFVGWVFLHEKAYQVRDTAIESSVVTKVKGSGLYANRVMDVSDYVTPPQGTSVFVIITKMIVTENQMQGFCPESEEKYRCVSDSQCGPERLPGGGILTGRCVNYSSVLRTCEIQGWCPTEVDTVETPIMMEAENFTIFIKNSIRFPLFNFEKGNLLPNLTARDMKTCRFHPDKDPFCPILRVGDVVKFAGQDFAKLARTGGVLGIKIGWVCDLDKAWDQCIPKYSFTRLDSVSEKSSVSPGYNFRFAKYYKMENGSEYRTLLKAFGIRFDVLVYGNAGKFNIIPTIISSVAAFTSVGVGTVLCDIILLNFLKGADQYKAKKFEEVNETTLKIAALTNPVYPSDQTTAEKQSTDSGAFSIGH

SMILES	IC50
O=C(NC1CCOCC1)c1cn(Cc2ccc(Cl)cc2)c(Nc2ccc(Oc3ccon3)cc2)nc1=O [Compound I-175]	37 nM
CCc1oc2ccc(Nc3ncc(NC(=O)C4CCOCC4)c(=O)n3C[C@H]3CC[C@H](C)CC3)cc2c1C [Compound I-082]	9 nM
CCC(=O)Nc1c[nH]/c(=N\c2ccc(Oc3cccc(F)n3)cc2)n(Cc2ccc(Cl)cc2)c1=O [Compound I-090]	11 nM
O=C(O)c1cccc(Oc2ccc(Nc3cc(=O)[nH]c(=O)n3Cc3ccc(Cl)cc3)cc2)n1 [Compound I-067]	34 nM
CCC(=O)Nc1c[nH]/c(=N\c2ccc(Oc3ccc(C)nn3)cc2)n(Cc2ccc(Cl)cc2)c1=O [Compound I-146]	26 nM
CCC(=O)Nc1c[nH]/c(=N\c2ccc(Oc3ccnc(C(N)=O)c3)cc2)n(Cc2ccc(Cl)cn2)c1=O [Compound I-277]	172 nM
O=C(Nc1c[nH]/c(=N\c2ccc(Oc3ccon3)cc2)n(Cc2ccc(Cl)cc2)c1=O)c1ccncc1 [Compound I-266]	68 nM
CCC(=O)N(C)C1=CN/C(=N\c2ccc(Oc3cccc(C(=O)O)n3)cc2)N(Cc2ccc(Cl)cc2)C1 [Compound I-241]	8 nM
O=C(NC1CCOCC1)c1cn(Cc2ccc(Cl)cc2)c(Nc2ccc(Oc3ccc(F)cn3)cc2)nc1=O [Compound I-158]	11 nM
O=C(Nc1c[nH]/c(=N\c2ccc(Oc3ccon3)cc2)n(Cc2ccc(Cl)cc2)c1=O)C1COC1 [Compound I-184]	14 nM
CN(C)C(=O)c1c[nH]/c(=N\c2ccc(Oc3cccc(C#N)n3)cc2)n(Cc2ccc(Cl)cc2)c1=O [Compound I-209]	102 nM
CCOC(=O)c1cnc(Nc2ccc(Oc3cccc(C(=O)OC)n3)cc2)n(Cc2ccc(Cl)cc2)c1=O [Compound I-051]	27 nM
O=c1c(NC(=O)[C@H]2C[C@H](F)C2)c[nH]/c(=N\c2ccc(Oc3ccon3)cc2)n1Cc1ccc(Cl)cc1 [Compound I-218]	17 nM
O=C(Nc1c[nH]/c(=N\c2ccc(Oc3ccon3)cc2)n(Cc2ccc(Cl)cc2)c1=O)c1ccon1 [Compound I-226]	208 nM
Cc1ccc(Oc2ccc(Nc3ncc(NC(=O)C4CCOCC4)c(=O)n3Cc3ccc(Cl)cc3)cc2)nn1 [Compound I-137]	1 nM
CCc1oc2ccc(/N=c3\[nH]cc(CC(N)=O)c(=O)n3Cc3ccc(Cl)cc3)cc2c1C [Compound I-084]	103 nM
CCn1c(=O)cc(Nc2cc(C)c(Oc3cccc(C(=O)O)c3)cn2)n(Cc2ccc(Cl)cc2)c1=O [Compound I-203]	336 nM
CCC(=O)Nc1c[nH]/c(=N\c2ccc(Oc3ccnc(C#N)c3)cc2)n(Cc2ccc(Cl)cn2)c1=O [Compound I-276]	165 nM
NC(=O)c1cccc(Oc2ccc(Nc3cc(=O)[nH]c(=O)n3Cc3ccc(Cl)cc3)cc2)n1 [Compound I-066]	81 nM
CCn1c(=O)cc(Nc2ccc(Oc3ccc(C(=O)OC)cc3)cn2)n(Cc2ccc(Cl)cc2)c1=O [Compound I-052]	21 nM
C/C(O)=C(/C#N)C(=O)Nc1c[nH]/c(=N\c2ccc(Oc3ccon3)cc2)n(Cc2ccc(Cl)cc2)c1=O [Compound I-242]	6 nM
Cc1nsc(Oc2ccc(/N=c3\[nH]cc(NC(=O)C4CCOCC4)c(=O)n3Cc3ccc(Cl)cc3)cc2)n1 [Compound I-225]	6 nM
Cc1nocc1C(=O)Nc1c[nH]/c(=N\c2ccc(Oc3ccon3)cc2)n(Cc2ccc(Cl)cc2)c1=O [Compound I-264]	15 nM
N#Cc1ccc(Oc2ccc(Nc3nc(=O)c(C(=O)NC4CCOCC4)cn3Cc3ccc(Cl)cc3)cc2)cn1 [Compound I-229]	7 nM
NC(=O)c1ccc(Oc2ccc(Nc3nc(=O)c(C(=O)NC4CCOCC4)cn3Cc3ccc(Cl)cc3)cc2)nc1 [Compound I-239]	5 nM
Cc1noc(-c2cn(Cc3ccc(Cl)cc3)/c(=N/c3ccc(Oc4cccc(F)n4)cc3)[nH]c2=O)n1 [Compound I-190, 1-(4-chlorobenzyl)-2-[4-(6-fluoro-2-pyridyloxy)phenylamino]-5-(3-methyl-1,2,4-oxadiazol-5-yl)pyrimidin-4(1H)-one]	6 nM
